In ChEMBL document CHEMBL5154787 (J Med Chem, 2022):
pIC50, pKi: −log10 of the molar value.

Assays:
[1] = target: AP2-associated protein kinase 1 (Mus musculus, UniProt Q3UHJ0); assay: Displacement of 3H-LP-927443 from AAK1 in C57BL6 mouse brain homogenate assessed as inhibition constant incubated for 1 hr by liquid scintillation counter analysis; assay type: tissue-based
[2] = Metabolic stability in rat liver microsomes assessed as parent compound remaining at 0.5 uM incubated for 10 mins in presence of NADPH by LC-MS/MS analysis; assay type: ADME, Microsome; conditions: read-out: Stability
[3] = Metabolic stability in mouse liver microsomes assessed as parent compound remaining at 0.5 uM incubated for 10 mins in presence of NADPH by LC-MS/MS analysis; assay type: ADME, Microsome; conditions: liver microsomes, read-out: Stability
[4] = target: T1, AP2-associated protein kinase 1 (Homo sapiens, UniProt Q2M2I8); assay: Inhibition of full length human AAK1 expressed in HEK293F cells assessed as suppression of AP2 phosphorylation measured after 3 hrs by Western blot analysis based cellular assay; assay type: cell-based
T1 sequence (Q2M2I8 whole entry): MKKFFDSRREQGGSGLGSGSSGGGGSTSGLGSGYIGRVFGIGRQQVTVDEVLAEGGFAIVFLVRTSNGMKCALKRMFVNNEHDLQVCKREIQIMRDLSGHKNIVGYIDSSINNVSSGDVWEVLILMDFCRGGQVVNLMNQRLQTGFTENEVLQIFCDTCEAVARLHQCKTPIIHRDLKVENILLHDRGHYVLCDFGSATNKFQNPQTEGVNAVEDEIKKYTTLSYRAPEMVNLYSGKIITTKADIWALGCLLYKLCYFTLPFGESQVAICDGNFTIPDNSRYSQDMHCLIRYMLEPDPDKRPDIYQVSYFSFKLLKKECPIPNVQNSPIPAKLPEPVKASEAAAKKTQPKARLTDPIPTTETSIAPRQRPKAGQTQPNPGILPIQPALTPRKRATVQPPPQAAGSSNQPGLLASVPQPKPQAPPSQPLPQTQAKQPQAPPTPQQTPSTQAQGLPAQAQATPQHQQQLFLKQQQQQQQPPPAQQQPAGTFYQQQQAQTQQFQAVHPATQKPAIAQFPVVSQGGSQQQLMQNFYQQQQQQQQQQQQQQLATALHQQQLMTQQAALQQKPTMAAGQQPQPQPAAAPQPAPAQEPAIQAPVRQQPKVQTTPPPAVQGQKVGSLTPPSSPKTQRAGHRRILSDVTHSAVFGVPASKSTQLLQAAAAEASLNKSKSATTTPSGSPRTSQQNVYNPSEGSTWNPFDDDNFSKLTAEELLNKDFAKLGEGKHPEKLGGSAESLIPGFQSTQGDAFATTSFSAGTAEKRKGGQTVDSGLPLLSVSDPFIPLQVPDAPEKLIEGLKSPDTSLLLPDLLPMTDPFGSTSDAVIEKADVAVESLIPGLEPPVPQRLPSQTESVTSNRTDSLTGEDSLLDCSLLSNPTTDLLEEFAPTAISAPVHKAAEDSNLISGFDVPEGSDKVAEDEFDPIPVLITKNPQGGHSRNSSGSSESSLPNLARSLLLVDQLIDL

[5] = Metabolic stability in human liver microsomes assessed as parent compound remaining at 0.5 uM incubated for 10 mins in presence of NADPH by LC-MS/MS analysis; assay type: ADME, Microsome; conditions: read-out: Stability
[6] = target: T1, AP2-associated protein kinase 1; assay: Inhibition of bacterially expressed GST-Xa-tagged human AAK1 using 5-FAM-labelled Aha-KEEQSQITSQVTGQIGWR-NH2 peptide as substrate incubated for 3 hrs in presence of ATP by electrophoretic analysis
Cytochrome P450 3A4 = Cytochrome P450 3A4 (Homo sapiens, UniProt P08684); assay: Inhibition of CYP3A4 (unknown origin) incubated for 10 mins in presence of NADPH by LC-MS/MS analysis; assay type: ADME
Sequence of Cytochrome P450 3A4 (P08684 whole entry): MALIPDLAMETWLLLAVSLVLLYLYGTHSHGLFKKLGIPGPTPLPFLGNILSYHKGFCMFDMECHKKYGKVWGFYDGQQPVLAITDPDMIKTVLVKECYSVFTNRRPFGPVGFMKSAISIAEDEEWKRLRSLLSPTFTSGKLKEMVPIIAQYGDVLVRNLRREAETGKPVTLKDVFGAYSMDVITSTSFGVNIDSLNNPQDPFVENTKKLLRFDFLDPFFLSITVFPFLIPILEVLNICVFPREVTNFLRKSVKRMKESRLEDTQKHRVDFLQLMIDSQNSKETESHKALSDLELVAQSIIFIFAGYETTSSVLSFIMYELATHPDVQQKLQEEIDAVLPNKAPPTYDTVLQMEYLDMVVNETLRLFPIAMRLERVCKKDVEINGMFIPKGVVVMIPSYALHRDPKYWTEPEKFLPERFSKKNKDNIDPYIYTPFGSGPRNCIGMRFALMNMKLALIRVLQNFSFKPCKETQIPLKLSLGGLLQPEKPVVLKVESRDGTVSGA

Sequence of AP2-associated protein kinase 1 (Mus musculus, UniProt Q3UHJ0) (Q3UHJ0 whole entry): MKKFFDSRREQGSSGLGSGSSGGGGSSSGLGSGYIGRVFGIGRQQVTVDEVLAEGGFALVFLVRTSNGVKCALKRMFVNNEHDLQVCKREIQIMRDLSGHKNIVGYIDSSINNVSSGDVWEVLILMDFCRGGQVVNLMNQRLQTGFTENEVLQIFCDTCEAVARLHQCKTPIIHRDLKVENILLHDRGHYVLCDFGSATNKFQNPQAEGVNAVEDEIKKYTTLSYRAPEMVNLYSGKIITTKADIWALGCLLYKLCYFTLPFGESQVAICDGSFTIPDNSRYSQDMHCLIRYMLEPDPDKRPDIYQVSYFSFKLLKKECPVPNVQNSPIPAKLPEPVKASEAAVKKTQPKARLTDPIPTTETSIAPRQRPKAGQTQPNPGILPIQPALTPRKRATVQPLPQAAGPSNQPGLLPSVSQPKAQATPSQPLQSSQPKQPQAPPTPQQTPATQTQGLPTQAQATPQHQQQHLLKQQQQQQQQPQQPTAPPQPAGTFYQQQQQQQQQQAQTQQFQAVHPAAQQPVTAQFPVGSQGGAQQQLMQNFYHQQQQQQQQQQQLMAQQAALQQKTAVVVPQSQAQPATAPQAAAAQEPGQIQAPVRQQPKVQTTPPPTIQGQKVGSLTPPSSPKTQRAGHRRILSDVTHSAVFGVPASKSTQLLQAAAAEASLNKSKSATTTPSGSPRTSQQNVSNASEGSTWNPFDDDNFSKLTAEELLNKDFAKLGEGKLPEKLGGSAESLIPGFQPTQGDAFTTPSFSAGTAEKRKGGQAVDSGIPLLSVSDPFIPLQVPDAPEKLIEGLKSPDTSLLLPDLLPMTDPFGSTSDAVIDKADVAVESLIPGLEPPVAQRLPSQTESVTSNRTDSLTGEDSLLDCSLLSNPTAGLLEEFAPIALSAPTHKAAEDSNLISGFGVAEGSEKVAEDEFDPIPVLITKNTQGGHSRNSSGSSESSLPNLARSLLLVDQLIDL

In the case of `CC(=O)Nc1cc(-c2ccc(OC[C@@H](N)CC(C)C)c(C(F)(F)F)c2)ccn1`, the pKi [1] was 10.40, the remaining at 10 min, 0.5 µM [2] was 82% and the remaining at 10 min, 0.5 µM [3] was 53%. It also gave a pIC50 [4] of 9.12, a remaining at 10 min, 0.5 µM [5] of 91% and a pIC50 [6] of 9.40. The pIC50 (Cytochrome P450 3A4) was 6.48.

For `CC(=O)Nc1cc(-c2ccc(OC[C@@H](N)CC(C)C)c(Cl)c2)ccn1`, the pKi [1] was 10.22, the remaining at 10 min, 0.5 µM [2] was 100% and the remaining at 10 min, 0.5 µM [3] was 86%. It also gave a pIC50 [4] of 9.70, a remaining at 10 min, 0.5 µM [5] of 89% and a pIC50 [6] of 9.30. The pIC50 (Cytochrome P450 3A4) was 5.59.

`CC(=O)Nc1cc(-c2cc(F)c(OC[C@@H](N)CC(C)C)cc2F)ccn1` showed a pKi [1] of 9.22, a remaining at 10 min, 0.5 µM [2] of 90% and a remaining at 10 min, 0.5 µM [3] of 70%. For the same compound, the pIC50 [4] was 8.17, the remaining at 10 min, 0.5 µM [5] was 78% and the pIC50 [6] was 8.89. The pIC50 (Cytochrome P450 3A4) was 5.15.

Work on `CC(=O)Nc1cc(-c2ccc(OC[C@@](C)(N)CC(C)C)c(F)c2)ccn1` yielded a pKi [1] of 9.62, a remaining at 10 min, 0.5 µM [2] of 92% and a remaining at 10 min, 0.5 µM [3] of 70%. It also gave a pIC50 [4] of 8.43, a remaining at 10 min, 0.5 µM [5] of 91% and a pIC50 [6] of 9.10. It also gave a pIC50 (Cytochrome P450 3A4) of under 4.70.

`CC(=O)Nc1cc(-c2cc(F)c(OC[C@@H](N)CC(C)C)c(Cl)c2)ccn1` showed a pKi [1] of 8.60, a remaining at 10 min, 0.5 µM [2] of 97% and a remaining at 10 min, 0.5 µM [3] of 75%. For the same compound, the pIC50 [4] was 8.17, the remaining at 10 min, 0.5 µM [5] was 94% and the pIC50 (Cytochrome P450 3A4) was 6.10.

Compound `CC(=O)Nc1cc(-c2ccc(OC[C@@H](N)CC(C)C)cc2)ccn1` has a pKi [1] of 9.05, a pIC50 [4] of 8.09 and a pIC50 [6] of 8.34.

`CC(C)C[C@H](N)COc1ccc(-c2ccnc(N)c2)cc1` gave a pKi [1] of 7.89 and a pIC50 [6] of 7.68.

For `Cc1cc(-c2ccnc(C(F)F)c2)ncc1OC[C@@](C)(N)CC(C)C`, the pKi [1] was 9.52, the remaining at 10 min, 0.5 µM [2] was 76% and the remaining at 10 min, 0.5 µM [3] was 80%. The pIC50 [4] was 7.92, the remaining at 10 min, 0.5 µM [5] was 83% and the pIC50 [6] was 8.85. For the same compound, the pIC50 (Cytochrome P450 3A4) was under 4.70.

Work on `CC(=O)Nc1cc(-c2cc(F)c(OC[C@@H](N)CC(C)C)c(F)c2)ccn1` yielded a pKi [1] of 7.57, a remaining at 10 min, 0.5 µM [2] of 100% and a remaining at 10 min, 0.5 µM [3] of 90%. It also gave a remaining at 10 min, 0.5 µM [5] of 90% and a pIC50 (Cytochrome P450 3A4) of 5.89.

For `COC(=O)Nc1cc(-c2ccc(OC[C@@](C)(N)CC(C)C)c(CO)c2)ccn1`, the pKi [1] was 9.20, the remaining at 10 min, 0.5 µM [2] was 100% and the remaining at 10 min, 0.5 µM [3] was 95%. The pIC50 [4] was 8.41, the remaining at 10 min, 0.5 µM [5] was 91% and the pIC50 (Cytochrome P450 3A4) was under 4.70.

In the case of `COC(=O)Nc1cc(-c2ccc(OC[C@@](C)(N)CC(C)C)nc2)ccn1`, the pKi [1] was 8.31, the remaining at 10 min, 0.5 µM [2] was 96% and the remaining at 10 min, 0.5 µM [3] was 79%. For the same compound, the remaining at 10 min, 0.5 µM [5] was 100%, the pIC50 [6] was 7.55 and the pIC50 (Cytochrome P450 3A4) was under 4.70.

With `COC(=O)Nc1cc(-c2ccc(OC[C@@](C)(N)CC(C)C)c(C(F)F)c2)ccn1` the pKi [1] was 10.40, the remaining at 10 min, 0.5 µM [2] was 86% and the remaining at 10 min, 0.5 µM [3] was 69%. It also gave a pIC50 [4] of 9.22, a remaining at 10 min, 0.5 µM [5] of 88% and a pIC50 [6] of 9.30. The pIC50 (Cytochrome P450 3A4) was under 4.70.

Compound `COC(=O)Nc1cc(-c2ccc(OC[C@@](C)(N)CC(C)C)c(OC(F)(F)F)c2)ccn1` has a pKi [1] of 10.40, a remaining at 10 min, 0.5 µM [2] of 83% and a remaining at 10 min, 0.5 µM [3] of 43%. It also gave a pIC50 [4] of 9.70, a remaining at 10 min, 0.5 µM [5] of 81% and a pIC50 [6] of 9.22. It also gave a pIC50 (Cytochrome P450 3A4) of 5.11.

In the case of `COC(=O)Nc1cc(-c2cc(C(F)F)c(OC[C@@](C)(N)CC(C)C)cn2)ccn1`, the pKi [1] was 10.15, the remaining at 10 min, 0.5 µM [2] was 87% and the remaining at 10 min, 0.5 µM [3] was 63%. It also gave a remaining at 10 min, 0.5 µM [5] of 79%, a pIC50 [6] of 9.40 and a pIC50 (Cytochrome P450 3A4) of under 4.70.

For `CC(=O)Nc1cc(-c2ccc(OC[C@@](C)(N)CC(C)C)c(C(F)F)c2)ccn1`, the pKi [1] was 10.30, the remaining at 10 min, 0.5 µM [2] was 84% and the remaining at 10 min, 0.5 µM [3] was 57%. The pIC50 [4] was 9.30, the remaining at 10 min, 0.5 µM [5] was 74% and the pIC50 [6] was 9.22.

`COC(=O)Nc1cc(-c2ccc(OC[C@@H](N)CC(C)C)c(F)c2)ccn1` showed a remaining at 10 min, 0.5 µM [2] of 84%, a remaining at 10 min, 0.5 µM [3] of 80% and a remaining at 10 min, 0.5 µM [5] of 92%. For the same compound, the pIC50 [6] was 8.92 and the pIC50 (Cytochrome P450 3A4) was 5.68.

Work on `COC(=O)Nc1cc(-c2ccc(OC[C@@](C)(N)CC(C)C)cn2)ccn1` (racemic) yielded a pKi [1] of 7.74, a remaining at 10 min, 0.5 µM [2] of 100% and a remaining at 10 min, 0.5 µM [3] of 93%. The remaining at 10 min, 0.5 µM [5] was 93%, the pIC50 [6] was 7.64 and the pIC50 (Cytochrome P450 3A4) was under 4.70.

Compound `COC(=O)Nc1cc(-c2ccc(OC[C@@](C)(N)CC(C)C)c(C)c2C)ccn1` (racemic) has a pKi [1] of 9.59, a remaining at 10 min, 0.5 µM [2] of 83% and a remaining at 10 min, 0.5 µM [3] of 70%. The pIC50 [4] was 8.01, the remaining at 10 min, 0.5 µM [5] was 93% and the pIC50 [6] was 8.35.

`COC(=O)Nc1cc(-c2ccc(OC[C@@](C)(N)CC(C)C)c(Cl)c2)ccn1` (racemic) gave a pKi [1] of 10.05, a remaining at 10 min, 0.5 µM [2] of 85% and a remaining at 10 min, 0.5 µM [3] of 66%. The pIC50 [4] was 8.85, the remaining at 10 min, 0.5 µM [5] was 81% and the pIC50 [6] was 9.30. For the same compound, the pIC50 (Cytochrome P450 3A4) was 6.13.
